Assay results: patent publication US6525066B2, “4-oxoquinolizine antimicrobial having 2-pyridone skeleton as partial structure” (SATO Pharmaceutical Co., Ltd., priority 1999, dated 2003)
≈ marks a conversion by molar mass, not a printed value.

What was measured:
Type in all cases: cell-based
[1] = test system: Bacteroides fragilis GAI0675; test: In vitro antibacterial activity against anaerobic bacteria (MIC); details: Bacteroides fragilis GAI0675 (Table 2: Bacteroides GMI0675), anaerobic bacteria method; for MIC: read-out: Antibacterial spectrum MIC
Experimental: (§1) The in vitro antibacterial activity of the present compound (Example 2, 4, 6, 8, 10, 12, 14, 16 and 18) was tested by the standard method of Japan Chemical Therapy Institute using agar plate dilution method which is described in CHEMOTHERAPY Vol.29, […], 1981. For an anaerobic bacteria, it was tested by the method described in CHEMOTHERAPY Vol. 27, 559-590, 1979. The minimum concentration at which the growth of a bacteria could be inhibited by the present compound was decided as MIC (μg/ml).

[2] = test system: Streptococcus Pneumoniae IID553; test: In vitro antibacterial activity, agar plate dilution method (MIC); details: for MIC: read-out: Antibacterial spectrum MIC
Experimental: as §1

[3] = test system: Pseudomonas aeruginosa CSJ 1853; test: as above; details: for MIC: CSJ1853, read-out: Antibacterial spectrum MIC
Experimental: as §1

[4] = test system: Streptococcus aureus Clin-211; test: as above; details: for MIC: CLIN211, read-out: Antibacterial spectrum MIC
Experimental: as §1

[5] = test system: Escherichia coli IFO 12734; test: as above; details: for MIC: IFO12734, read-out: Antibacterial spectrum MIC
Experimental: as §1

[6] = test system: Streptococcus aureus JCM2874; test: as above; details: for MIC: read-out: Antibacterial spectrum MIC
Experimental: as §1

SMILES | MIC [1] | MIC [2] | MIC [3] | MIC [4] | MIC [5] | MIC [6] | Antibacterial spectrum MIC [1] | Antibacterial spectrum MIC [2] | Antibacterial spectrum MIC [3] | Antibacterial spectrum MIC [4] | Antibacterial spectrum MIC [5] | Antibacterial spectrum MIC [6]
Cc1c(-c2ccc3c(c2)CNC3)ccn2c(=O)c(C(=O)O)cc(C3CC3)c12 [Example 6, 1-cyclopropyl-9-methyl-8-(isoindoline-5-yl)-4-oxo-4H-quinolizine-3-carboxylic acid] | 0.031 µg/mL (≈ 0.086 µM) | 0.031 µg/mL (≈ 0.086 µM) | 0.25 µg/mL (≈ 0.694 µM) | 0.125 µg/mL (≈ 0.347 µM) | 0.016 µg/mL (≈ 0.0444 µM) | 0.008 µg/mL (≈ 0.0222 µM) | – | – | – | – | – | –
COc1c(-c2ccc3c(c2)CNC3)ccn2c(=O)c(C(=O)O)cc(C3CC3)c12 [Example 8, 1-cyclopropyl-9-methoxy-8-(isoindoline-5-yl)-4-oxo-4H-quinolizine-3-carboxylic acid] | 0.25 µg/mL (≈ 0.664 µM) | 0.25 µg/mL (≈ 0.664 µM) | 1 µg/mL (≈ 2.66 µM) | 0.5 µg/mL (≈ 1.33 µM) | 0.063 µg/mL (≈ 0.167 µM) | 0.063 µg/mL (≈ 0.167 µM) | – | – | – | – | – | –
CC1NCc2cc(-c3ccn4c(=O)c(C(=O)O)cc(C5CC5)c4c3OC(F)F)ccc21 (stereo not drawn) [Example 10, 1-cyclopropyl-9-difluoromethoxy-8-((+)-1-methylisoindoline-5-yl)-4-oxo-4H-quinolizine-3-carboxylic acid] | 0.5 µg/mL (≈ 1.17 µM) | 0.25 µg/mL (≈ 0.586 µM) | 4 µg/mL (≈ 9.38 µM) | 1 µg/mL (≈ 2.35 µM) | 0.125 µg/mL (≈ 0.293 µM) | 0.063 µg/mL (≈ 0.148 µM) | – | – | – | – | – | –
O=C(O)c1cc(C2CC2)c2c(OC(F)F)c(-c3ccc4c(c3)CNC4)ccn2c1=O [Example 12, 1-cyclopropyl-9-difloromethoxy-8-(isoindoline-5-yl)-4-oxo-4H-quinolizine-3-carboxylic acid] | – | – | – | – | – | – | 0.25 µg/mL | 0.25 µg/mL | 4 µg/mL | 1 µg/mL | 0.125 µg/mL | 0.031 µg/mL
Cc1c(-c2cc(F)c3c(c2)CNC3)ccn2c(=O)c(C(=O)O)cc(C3CC3)c12 [Example 14, 1-cyclopropyl-8-(4-fluoroisoindoline-6-yl)-9-methyl-4-oxo-4H-quinolizine-3-carboxylic acid] | 0.016 µg/mL (≈ 0.0423 µM) | 0.031 µg/mL (≈ 0.0819 µM) | 0.5 µg/mL (≈ 1.32 µM) | 0.125 µg/mL (≈ 0.33 µM) | 0.031 µg/mL (≈ 0.0819 µM) | 0.008 µg/mL (≈ 0.0211 µM) | – | – | – | – | – | –
COc1cc(-c2ccn3c(=O)c(C(=O)O)cc(C4CC4)c3c2C)cc2c1CNC2 [Example 18, 1-cyclopropyl-9-methyl-8-(4-methoxy-isoindoline-6-yl)-4-oxo-4H-quinolizine-3-carboxylic acid] | 0.063 µg/mL (≈ 0.161 µM) | 0.125 µg/mL (≈ 0.32 µM) | 2 µg/mL (≈ 5.12 µM) | 0.5 µg/mL (≈ 1.28 µM) | 0.125 µg/mL (≈ 0.32 µM) | 0.031 µg/mL (≈ 0.0794 µM) | – | – | – | – | – | –
C[C@H]1COc2c(N3CCN(C)CC3)c(F)cc3c(=O)c(C(=O)O)cn1c23 [LVFX, levofloxacin, reference compound] | 0.5 µg/mL (≈ 1.38 µM) | 1 µg/mL (≈ 2.77 µM) | 0.5 µg/mL (≈ 1.38 µM) | 4 µg/mL (≈ 11.1 µM) | 0.063 µg/mL (≈ 0.174 µM) | 0.25 µg/mL (≈ 0.692 µM) | – | – | – | – | – | –

Second part, the molecule after the results:

MIC [1] | MIC [2] | MIC [3] | MIC [4] | MIC [5] | MIC [6] | Antibacterial spectrum MIC [1] | Antibacterial spectrum MIC [2] | Antibacterial spectrum MIC [3] | Antibacterial spectrum MIC [4] | Antibacterial spectrum MIC [5] | Antibacterial spectrum MIC [6] | SMILES
0.031 µg/mL (≈ 0.0828 µM) | 0.063 µg/mL (≈ 0.168 µM) | 0.25 µg/mL (≈ 0.668 µM) | 0.25 µg/mL (≈ 0.668 µM) | 0.031 µg/mL (≈ 0.0828 µM) | 0.008 µg/mL (≈ 0.0214 µM) | – | – | – | – | – | – | Cc1c(-c2ccc3c(c2)CNC3C)ccn2c(=O)c(C(=O)O)cc(C3CC3)c12 (stereo not drawn) [Example 2, 1-cyclopropyl-9-methyl-8-(1-methylisoindoline-5-yl)-4-oxo-4H-quinolizine-3-carboxylic acid]
0.25 µg/mL (≈ 0.64 µM) | 0.25 µg/mL (≈ 0.64 µM) | 1 µg/mL (≈ 2.56 µM) | 1 µg/mL (≈ 2.56 µM) | 0.125 µg/mL (≈ 0.32 µM) | 0.063 µg/mL (≈ 0.161 µM) | – | – | – | – | – | – | COc1c(-c2ccc3c(c2)CNC3C)ccn2c(=O)c(C(=O)O)cc(C3CC3)c12 (stereo not drawn) [Example 4, 1-cyclopropyl-9-methoxy-8-(1-methylisoindoline-5-yl)-4-oxo-4H-quinolizine-3-carboxylic acid]
0.25 µg/mL (≈ 0.615 µM) | 0.5 µg/mL (≈ 1.23 µM) | 8 µg/mL (≈ 19.7 µM) | 2 µg/mL (≈ 4.92 µM) | 0.5 µg/mL (≈ 1.23 µM) | 0.125 µg/mL (≈ 0.308 µM) | – | – | – | – | – | – | COc1cc(-c2ccn3c(=O)c(C(=O)O)cc(C4CC4)c3c2OC)cc2c1CNC2 [Example 16, 1-cyclopropyl-9-methoxy-8-(4-methoxyisoindoline-6-yl)-4-oxo-4H-quinolizine-3-carboxylic acid]
